Test results as given in article PMC8522752 (Antimicrobial Agents and Chemotherapy, 2021).
Where two headings read alike, the source gives them in different places.

Experiments:
[1] = test system: Dengue-2 New Guinea C; assay: Neutral red CPE inhibition assay, Dengue-2 New Guinea C in Huh-7; format: cell-based; details: Dengue virus, Huh-7, neutral red assay, read-out: EC50 (inhibition of virus-induced CPE)
[2] = test system: Dengue-2 New Guinea C; assay: microbe, parasite or virus in culture; format: cell-based; details: Huh-7, VYR assay, read-out: EC90 (reduce virus yield by 1 log10) (converted)
[3] = test system: DENV2 (clinical isolate); assay: DENV2 clinical isolate CPE inhibition in human PBMCs (MTT); format: cell-based, dengue virus
[4] = test system: DENV2 (clinical isolate); assay: DENV2 clinical isolate CPE inhibition in BHK-21 cells (MTT); format: cell-based, dengue virus
[5] = test system: Dengue-3 H87; assay: Neutral red CPE inhibition assay, Dengue-3 H87 in Huh-7; format: cell-based; details: Dengue virus; Dengue-3 H87, Huh-7, neutral red assay; read-out: EC50 (inhibition of virus-induced CPE)
[6] = test system: Japanese encephalitis virus SA-14; assay: Neutral red CPE inhibition assay, Japanese encephalitis SA-14 in Huh-7; format: cell-based; details: Japanese encephalitis SA-14, Huh-7, neutral red assay, read-out: EC50 (inhibition of virus-induced CPE)
[7] = test system: West Nile virus Kern 515, WNo2; assay: Neutral red CPE inhibition assay, West Nile virus in Huh-7; format: cell-based; details: West Nile Kern 515, WNo2, Huh-7, neutral red assay, read-out: EC50 (inhibition of virus-induced CPE)
[8] = test system: West Nile virus Kern 515, WNo2; assay: microbe, parasite or virus in culture; format: cell-based; details: West Nile Kern 515, WNo2, Huh-7, VYR assay, read-out: EC90 (reduce virus yield by 1 log10) (converted)
[9] = test system: Yellow Fever virus YFV 17D; assay: microbe, parasite or virus in culture; format: cell-based; details: Huh-7, read-out: EC50 (inhibition of virus-induced CPE)
[10] = test system: Yellow Fever virus YFV 17D; assay: microbe, parasite or virus in culture; format: cell-based; details: Huh-7, read-out: EC90 (reduce virus yield by 1 log10) (converted)
[11] = test system: Zika virus MR766; assay: Neutral red CPE inhibition assay, Zika MR766 in Huh-7; format: cell-based; details: Huh-7, read-out: EC50 (inhibition of virus-induced CPE)
[12] = test system: Powassan virus Spooner; assay: microbe, parasite or virus in culture; format: cell-based; details: BHK-21, read-out: EC50 (inhibition of virus-induced CPE)
[13] = test system: Powassan virus Spooner; assay: microbe, parasite or virus in culture; format: cell-based; details: BHK-21, read-out: EC90 (reduce virus yield by 1 log10) (converted)
[14] = test system: Powassan virus LB; assay: microbe, parasite or virus in culture; format: cell-based; details: BHK-21, read-out: EC50 (inhibition of virus-induced CPE)
[15] = test system: Powassan virus LB; assay: microbe, parasite or virus in culture; format: cell-based; details: BHK-21, read-out: EC90 (reduce virus yield by 1 log10) (converted)
[16] = test system: Usutu virus TC-508; assay: Neutral red CPE inhibition assay, Usutu TC-508 in Huh-7; format: cell-based; details: Huh-7, read-out: EC50 (inhibition of virus-induced CPE)
[17] = test system: Usutu virus TC-508; assay: microbe, parasite or virus in culture; format: cell-based; details: Usutu TC-508, Huh-7, VYR assay, read-out: EC90 (reduce virus yield by 1 log10) (converted)
[18] = Cytotoxicity in uninfected BHK-21 cells (MTT, DENV2 study); format: cell-based; details: hamster, BHK-21 without virus, Dengue-2 clinical isolate study, bound = highest concentration tested
[19] = test system: Chikungunya virus; assay: Antiviral specificity panel, Chikungunya in Huh-7; format: cell-based; details: Chikungunya (RNA), read-out: EC50 (inhibit viral replication 50%)
[20] = test system: Eastern equine encephalitis virus; assay: microbe, parasite or virus in culture; format: cell-based; details: Huh-7, read-out: EC50 (inhibit viral replication 50%)
[21] = test system: HCV; assay: Antiviral specificity panel, HCV in Huh-7; format: cell-based, hepatitis C virus
[22] = test system: HIV-1; assay: Antiviral specificity panel, HIV-1 in CEM-SS; format: cell-based; details: Human immunodeficiency virus 1, HIV-1 (RNA), read-out: EC50 (inhibit viral replication 50%)
[23] = test system: Influenza A and B; assay: Antiviral specificity panel, Influenza A and B in MDCK; format: cell-based; details: Influenza A virus, Influenza A and B (RNA), read-out: EC50 (inhibit viral replication 50%)
[24] = test system: Respiratory syncytial virus; assay: Antiviral specificity panel, respiratory syncytial virus in HEp2; format: cell-based; details: human respiratory syncytial virus, HEp-2, Respiratory syncytial virus (RNA), read-out: EC50 (inhibit viral replication 50%)
[25] = test system: Rhinovirus; assay: Antiviral specificity panel, Rhinovirus in H1-HeLa; format: cell-based; details: Enterovirus, Rhinovirus (RNA), read-out: EC50 (inhibit viral replication 50%)
[26] = test system: Rift Valley fever virus; assay: microbe, parasite or virus in culture; format: cell-based; details: Huh-7, read-out: EC50 (inhibit viral replication 50%)
[27] = test system: Adenovirus; assay: Antiviral specificity panel, Adenovirus in Vero; format: cell-based; details: unidentified adenovirus, Adenovirus (DNA), read-out: EC50 (inhibit viral replication 50%)
[28] = test system: Herpes simplex-1; assay: Antiviral specificity panel, Herpes simplex-1 in Vero; format: cell-based; details: Herpes simplex-1 (DNA), read-out: EC50 (inhibit viral replication 50%)
[29] = Cardiomyocyte assay (CellTiter Glo); format: cell-based; details: human iPS cardiomyocytes
[30] = test system: BHK-21 cells; details: hamster
[31] = test system: flaviviruses
[32] = mice, 1,000 mg/kg loading then 500 mg/kg BID for 3 days, oral
[33] = in vivo; details: male, CD-1, mouse, po, 420 mg/kg
[34] = in vivo; details: male, cynomolgus, cynomolgus monkey, po, 300 mg/kg
[35] = in vitro; details: human, hamster
[36] = in vitro; details: dog
[37] = in vitro; details: African green monkey
[38] = test system: flaviviruses; assay: microbe, parasite or virus in culture
[39] = Plasma pharmacokinetics in cynomolgus monkeys after oral AT-752; details: monkeys, oral AT-752 300 mg/kg
[40] = Plasma pharmacokinetics in Sprague Dawley rats after oral AT-752; details: rat, oral AT-752 300 mg/kg, earliest time point measured

`CNc1nc(N)nc2c1ncn2[C@@H]1O[C@H](CO[P@](=O)(N[C@@H](C)C(=O)OC(C)C)Oc2ccccc2)[C@@H](O)[C@@]1(C)F` [AT-281] gave an EC50 [1] of 480 nM, an EC90 [2] of 640 nM and an EC50 ([3]; Dengue virus, DENV2, PBMC, read-out: EC50 (inhibition of virus-induced CPE), Dengue-2 clinical isolate, human PBMC) of 600 nM. For the same compound, the EC50 ([3]; read-out: EC50 (inhibition of virus-induced CPE), Dengue-2 clinical isolate, human PBMC) was 800 nM, the EC50 ([4]; Dengue virus, DENV2, BHK-21, read-out: EC50 (inhibition of virus-induced CPE), Dengue-2 clinical isolate, BHK-21) was 630 nM and the EC50 ([4]; read-out: EC50 (inhibition of virus-induced CPE), Dengue-2 clinical isolate, BHK-21) was 1100 nM. It also gave an EC50 [5] of 770 nM, an EC50 [6] of 210 nM and an EC50 [7] of 1410 nM. The EC90 [8] was 430 nM, the EC50 [9] was 310 nM and the EC90 [10] was 260 nM. It also gave an EC50 [11] of 640 nM, an EC50 [12] of 290 nM and an EC90 [13] of 740 nM. The EC50 [14] was 640 nM, the EC90 [15] was 2600 nM and the EC50 [16] was 190 nM. The EC90 [17] was 720 nM, the CC50 at 3 days [18] was > 170000 nM and the EC50 [19] was 54200 nM. For the same compound, the EC50 [20] was 10200 nM, the “selectivity toward HCV” value [21] was > 2,000 and the EC50 ([21]; Hepatitis C virus, HCV (RNA), read-out: EC50 (inhibit viral replication 50%)) was 50 nM. The EC50 [22] was > 100000 nM, the EC50 [23] was > 100000 nM and the EC50 [24] was > 100000 nM. The EC50 [25] was > 100000 nM, the EC50 [26] was > 100000 nM and the EC50 [27] was > 100000 nM. For the same compound, the EC50 [28] was > 100000 nM, the CC50 at 3 days [29] was > 100000 nM and the CC50 [30] was > 170000 nM. The “SI (CC50/EC50)” value [31] was > 210, the cytotoxicity [31] was “Little to no cytotoxicity” and the “tolerability (adverse clinical signs)” value [32] was “well tolerated”. For the same compound, the AUC(0-t) [33] was 4.2 ± 0.5 µM·h, the Cmax [33] was 2.6 ± 0.3 µM and the Tmax [33] was 48 ± 18 min. For the same compound, the AUC(0-t) [34] was 9.5 ± 3.7 µM·h, the Cmax [34] was 3.7 ± 1.5 µM and the Tmax [34] was 60 min. The CC50 [35] was 85000 to 170000 nM, the CC50 [36] was > 100000 nM and the CC50 [37] was > 100000 nM. The EC50 ([38]; Dengue virus, DENV2 / DENV3, read-out: EC50 values, all other flaviviruses tested) was 190 to 1410 nM, the EC50 ([38]; Orthoflavivirus, in Homo sapiens, 144 h, read-out: EC50 of the virus-induced cytopathic effect (CPE), range over Table 1) was 210 to 1410 nM and the “time present in plasma” value [39] was “more than 4 h”. For the same compound, the “plasma concentration at 1 h” value [40] was “below the limit of quantitation”.
